Experimental data as given in the supplement of paper PMC11208160.

Test: recombinant barcode read abundance after kanamycin selection (control-corrected) (log10(CPM+1)); higher = more efficient recombination; sequences stand for … in AGTGCAGAGAAAATCGGCCAGTTTTCTCTGCCTGCAGTCCGCATGCCGT…AGATTTATGCAGCGGACTGCCTTTCTCCCAAAGTGATAAACCGGACAGTATCATGGACCGGTTTTCCCGGTAATCCGTATTTGCAAGGTTGGTTTCACT; site = the 11-nt target
Summary of the method: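 Each value is log10(CPM+1). It describes recombination efficiency, taken as averaged, control-corrected counts per million of barcodes at recombinant junctions. The pooled E. coli library paired targets with IS621 bridge RNA target-binding loops, was co-electroporated with a donor plasmid, and was plated twice on chloramphenicol/ampicillin LB agar (control) and twice on chloramphenicol/ampicillin/kanamycin containing 0.1 mM IPTG.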
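Note: IS621 recombinase and bridge RNA in Escherichia coli cells.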

Sequence	recombinant barcode read abundance (log10)
GTAGGAACTTGGGTTCTAACCTGTTGCTG (site GTAGGAACTCA)	2.54
GTAGGGACTTGGGTTCTAACCTGTTGCCG (site AGCCCTTCTAA)	0.192
GTAGGGACTTGGGTTCTAACCTGTTGCCG (site GTAGGGACTCG)	2.47
GTAGTACCTTGGGTTCTAACCTGTTGCCT (site GTAGTAACTAG)	0.0694
GTAGTACCTTGGGTTCTAACCTGTTGCCT (site GTAGTACCTAG)	1.73
GTAGTACCTTGGGTTCTAACCTGTTGCCT (site GTAGTAGCTAG)	0.247
GTAGTACCTTGGGTTCTAACCTGTTGCCT (site GTAGTATCTAG)	0.545
GTAGTCCCTTGGGTTCTAACCTGTTGCCT (site GAAGTCTCTAG)	0.118
GTAGTCCCTTGGGTTCTAACCTGTTGCCT (site GTAGTCCCTAG)	2.06
GTAGTGTCTTGGGTTCTAACCTGTTGCTA (site CTAGTGTCTTA)	1.61
GTAGTGTCTTGGGTTCTAACCTGTTGCTA (site GTAGTGTCTTA)	2.37
GTATCAACTTGGGTTCTAACCTGTTGCCT (site GTATCAACTAG)	0.35
GTATCAACTTGGGTTCTAACCTGTTGCCT (site GTATCACCTAG)	0.0908
GTATCAACTTGGGTTCTAACCTGTTGCCT (site GTATCAGCTAG)	0.0211
GTATCAACTTGGGTTCTAACCTGTTGCCT (site GTATCATCTAG)	0
GTATCACCTTGGGTTCTAACCTGTTGCCT (site GTATCAACTAG)	0.19
GTATCACCTTGGGTTCTAACCTGTTGCCT (site GTATCACCTAG)	1.44
GTATCACCTTGGGTTCTAACCTGTTGCCT (site GTATCAGCTAG)	0.187
GTATCACCTTGGGTTCTAACCTGTTGCCT (site GTATCATCTAG)	0.0641
GTATGACCTTGGGTTCTAACCTGTTGCCT (site GTATGAACTAG)	0.0455
GTATGACCTTGGGTTCTAACCTGTTGCCT (site GTATGACCTAG)	1.86
GTATGACCTTGGGTTCTAACCTGTTGCCT (site GTATGAGCTAG)	0.0609

Sequence	recombinant barcode read abundance (log10)
GTATGACCTTGGGTTCTAACCTGTTGCCT (site GTATGATCTAG)	0.217
GTATGAGCTTGGGTTCTAACCTGTTGCCT (site GTATGAACTAG)	0.475
GTATGAGCTTGGGTTCTAACCTGTTGCCT (site GTATGACCTAG)	0.0478
GTATGAGCTTGGGTTCTAACCTGTTGCCT (site GTATGAGCTAG)	1.5
GTATGAGCTTGGGTTCTAACCTGTTGCCT (site GTATGATCTAG)	0.135
GTATGCCCTTGGGTTCTAACCTGTTGCCT (site GTATGCCCTAG)	1.38
GTATGCCCTTGGGTTCTAACCTGTTGCCT (site GTGGGCCCTAG)	0
GTATGGTCTTGGGTTCTAACCTGTTGCGT (site GTATCGTCTAG)	0.0442
GTATGGTCTTGGGTTCTAACCTGTTGCGT (site GTATGGTCTAC)	2.98
GTATGTACTTGGGTTCTAACCTGTTGCAT (site GTATGATCTAT)	0.206
GTATGTACTTGGGTTCTAACCTGTTGCAT (site GTATGTACTAT)	0.435
GTCAACTCTTGGGTTCTAACCTGTTGCCT (site GTAAACTCTAG)	0.0267
GTCAACTCTTGGGTTCTAACCTGTTGCCT (site GTCAACTCTAG)	2.06
GTCAACTCTTGGGTTCTAACCTGTTGCCT (site GTGAACTCTAG)	0.00674
GTCAACTCTTGGGTTCTAACCTGTTGCCT (site GTTAACTCTAG)	0.13
GTCAATCCTTGGGTTCTAACCTGTTGCGG (site CGACGAACTAG)	0.138
GTCAATCCTTGGGTTCTAACCTGTTGCGG (site GTCAATCCTCC)	1.25
GTCAATCCTTGGGTTCTAACCTGTTGCGT (site GCCACTCCTAC)	0.0762
GTCAATCCTTGGGTTCTAACCTGTTGCGT (site GTCAATCCTAC)	1.98
GTCACCTCTTGGGTTCTAACCTGTTGCCT (site GTCACCTCTAG)	1.8
GTCACCTCTTGGGTTCTAACCTGTTGCCT (site GTCCCCTCTAG)	0.0973
GTCACCTCTTGGGTTCTAACCTGTTGCCT (site GTCGCCTCTAG)	0.0645

Sequence	recombinant barcode read abundance (log10)
GTCACCTCTTGGGTTCTAACCTGTTGCCT (site GTCTCCTCTAG)	0.105
GTCACTACTTGGGTTCTAACCTGTTGCGT (site GTAACTACTCC)	0.182
GTCACTACTTGGGTTCTAACCTGTTGCGT (site GTCACTACTAC)	0.517
GTCAGCCCTTGGGTTCTAACCTGTTGCGG (site GTCAGCCCTCC)	2.53
GTCAGCCCTTGGGTTCTAACCTGTTGCGG (site GTTAGCCCTCC)	0.365
GTCCCTCCTTGGGTTCTAACCTGTTGCGT (site GTCCCTCCTAA)	0.0918
GTCCCTCCTTGGGTTCTAACCTGTTGCGT (site GTCCCTCCTAC)	2.74
GTCCCTCCTTGGGTTCTAACCTGTTGCGT (site GTCCCTCCTAG)	0.156
GTCCCTCCTTGGGTTCTAACCTGTTGCGT (site GTCCCTCCTAT)	1.34
GTCCTACCTTGGGTTCTAACCTGTTGCAA (site GTCCTAACTGT)	0.42
GTCCTACCTTGGGTTCTAACCTGTTGCAA (site GTCCTACCTTT)	1.45
GTCGAGCCTTGGGTTCTAACCTGTTGCCT (site GTCGAGCCTAG)	2.12
GTCGAGCCTTGGGTTCTAACCTGTTGCCT (site GTTCAGCCTAG)	0.157
GTCGAGTCTTGGGTTCTAACCTGTTGCCT (site GTCGACACTAG)	0.186
GTCGAGTCTTGGGTTCTAACCTGTTGCCT (site GTCGAGTCTAG)	1.61
GTCGCTACTTGGGTTCTAACCTGTTGCCG (site GTCACTACTCG)	0
GTCGCTACTTGGGTTCTAACCTGTTGCCG (site GTCCCTACTCG)	0.0655
GTCGCTACTTGGGTTCTAACCTGTTGCCG (site GTCGCTACTCG)	0.95
GTCGCTACTTGGGTTCTAACCTGTTGCCG (site GTCTCTACTCG)	1.35
GTCGCTACTTGGGTTCTAACCTGTTGCGG (site GTCGCTACTCC)	0.785
GTCGCTACTTGGGTTCTAACCTGTTGCGG (site GTCTCTACTCC)	0.667
GTCGGTCCTTGGGTTCTAACCTGTTGCAC (site GTCGGTCCTGT)	2.49
